From publication PMC2594009 (Structure (London, England : 1993), 2008)
“Also recorded” adds a separate entry of the source.

Experiments:
[1] = system: WT AM2; type: cell-based, influenza A virus; details: pH 5.5
[2] = system: M2; details: cited from earlier work

NC12CC3CC(CC(C3)C1)C2 [amantadine]
reversibility of inhibition after removal of the drug [1]: did not reverse; also recorded: not reversible
Hill coefficient [2]: 1.0
